According to patent US20190133968A1, “Applications of benzophenones in preparation of drug” (SHANXI MEDICAL UNIVERSITY, priority 2016, published 2019):

Test system: DN rats
Test: type II diabetic nephropathy (DN) rat model (high-sugar high-fat diet + streptozocin)
Type: in vivo, SD (Sprague Dawley) rats
Settings: for BUN / CREA / Glycated hemoglobin / Urinary protein / mALB (microalbumin in urine) / ICAM-1 / IL-1β / IL-6 / MDA / NF-κB / SOD / T-AOC / TGF-β1 / TNF-α / Glucose (GLU) / HDL-C / LDL-C / TC / TG / UA / Kidney coefficient / VCAM-1: gavage, 6 weeks; for Urinary protein / mALB (microalbumin in urine): 6-hour urine; for ICAM-1 / IL-1β / IL-6 / MDA / NF-κB / SOD / T-AOC / TGF-β1 / TNF-α / VCAM-1: renal tissues; for Glucose (GLU) / HDL-C / LDL-C / TC / TG / UA: serum; for Kidney coefficient: weights of two kidneys/body weight
Method: The solid dispersions are prepared through a solvent method, comprising steps of: respectively precisely weighing LM49, PVPK30 and tween80 with a weight ratio of 1:5:1, and A8, PVPK30 and tween80 with a weight ratio of 1:4:1; dissolving with appropriate absolute ethyl alcohol, continuously stirring, and uniformly mixing; placing on the water bath at 60° C., evaporating and removing the absolute ethyl alcohol, and obtaining a viscous material; placing in the freezer at −20° C., and freezing for 2 hours; taking out from the freezer, then placing in the vacuum drying oven, and drying for 24 hours; after becoming embrittlement, smashing and sieving with a sieve of 80 meshes, and then placing in the dryer for storage.
The healthy adult male SD rats (having a weight of 180-220 g) are fed with the high-sugar and high-fat diet for 4 weeks; the rats are fasting overnight; and streptozocin (STZ) of 40 mg/kg is intraperitoneally injected into the rats. The rats of normal control group are injected with the sodium citrate buffer of same volume; 72 hours later, the rats are fasting for 12 hours. […] During the administration period, the successfully established model rats are still fed with the high-sugar and high-fat diet, while the rats of the normal control group are fed with the normal diet.
After administration for 6 weeks, 6-hour urine of the rats is collected with the metabolism cage.
The rats are fasting overnight and anesthetized intraperitoneally, then the abdominal aorta blood thereof is drawn for measuring the related indexes. The two kidneys of each rat are washed with the normal saline; weights of the kidneys are recorded; and the kidney coefficient (weights of two kidneys/body weight) is calculated. The renal tissues (comprising the glomerulus and renal tubules) at the same part of the left kidney are cut lengthwise and immersed in the 10% neutral formalin for pathomorphology analysis, and the other parts of the left kidney are used for biochemical index measurement; the right kidney is used for mechanism research and stored in the freezer at −80° C.
After successfully establishing the model rats, expect the normal control group (ten rats), the remaining rats are randomly divided into eight groups, wherein each group has twelve rats. The eight groups are respectively the model group, the LM49 solid dispersion low-dose group (with the drug concentration of 3 mg/kg), the LM49 solid dispersion medium-dose group (with the drug concentration of 9 mg/kg), the LM49 solid dispersion high-dose group (with the drug concentration of 27 mg/kg), the A8 solid dispersion low-dose group (with the drug concentration of 3 mg/kg), the A8 solid dispersion medium-dose group (with the drug concentration of 9 mg/kg), the A8 solid dispersion high-dose group (with the drug concentration of 27 mg/kg), and the captopril control group (with the drug concentration of 15 mg/kg).
Administration Way: By Gavage.
The rats of the normal control group and the model group are administrated with the normal saline of 1.0 ml/100 g; the rats of the positive control group, the LM49 solid dispersion high-dose, medium-dose and low-dose groups and the A8 solid dispersion high-dose, medium-dose and low-dose groups are respectively administrated with the drugs of different concentrations, and the administration volume is 1.0 ml/100 g.
The solid dispersions are dissolved by the normal saline; and the rats of the positive control group are administrated with the 0.5% CMC-Na (sodium carboxymethyl cellulose) suspension.
The rats are administrated seven days a week, for totally six weeks.
The IBM SPSS Statistics 20 software is used for data processing, and the data is represented in x±s. The one-way analysis of variance (ANOVA) is adopted for comparison among the groups. According to the homogeneity test results of variance, if the variance is equal, the LSD (least significant difference) test is adopted; if the variance is unequal, the Dunnett's T3 test is adopted. […]

O=C(c1cc(OC(=O)N2CCOCC2)c(OC(=O)N2CCOCC2)cc1Cl)c1cc(Cl)ccc1OC(=O)N1CCOCC1 [A8, 4,5,2′-tris(4-morpholinemethanoyl)-2,5′-dichlorobenzophenone]
BUN (DN rats, high-dose 27 mg/kg): 10.05 ± 1.61 mmol/L
CREA (DN rats, high-dose 27 mg/kg): 52.06 ± 1.66 µmol/L
Glycated hemoglobin (DN rats, high-dose 27 mg/kg): 6.44 ± 0.53^□□● %
Urinary protein (DN rats, high-dose 27 mg/kg): 1.42 ± 0.71^□□●●▴ mg/6 h
mALB (microalbumin in urine) (DN rats, high-dose 27 mg/kg): 39.00 ± 7.58^□□●●▴▴ μg/6 h
ICAM-1 (DN rats, high-dose 27 mg/kg): 322.5 ± 85.70 pg/mgprog
IL-1β (DN rats, high-dose 27 mg/kg): 133.45 ± 24.68 pg/mgprog
IL-6 (DN rats, high-dose 27 mg/kg): 71.29 ± 14.14^□□● pg/mgprog
MDA (DN rats, high-dose 27 mg/kg): 1.42 ± 0.25 nmol/mgprog
NF-κB (DN rats, high-dose 27 mg/kg): 298.32 ± 58.92^□□▴▴◯◯ pg/mgprog
SOD (DN rats, high-dose 27 mg/kg): 4.37 ± 1.25 U/mgprog
T-AOC (DN rats, high-dose 27 mg/kg): 1.32 ± 0.17 U/mgprog
TGF-β1 (DN rats, high-dose 27 mg/kg): 21.36 ± 4.64^□□●●▴▴ pg/mgprot
TNF-α (DN rats, high-dose 27 mg/kg): 304.51 ± 73.47^□ pg/mgprog
Glucose (GLU) (DN rats, high-dose 27 mg/kg): 9.75 ± 2.11^□□●●▴◯ mmol/L
HDL-C (DN rats, high-dose 27 mg/kg): 1.20 ± 0.27 mmol/L
LDL-C (DN rats, high-dose 27 mg/kg): 1.01 ± 0.20^□□●▴ mmol/L
TC (DN rats, high-dose 27 mg/kg): 1.42 ± 0.19^□□●●▴◯ mmol/L
TG (DN rats, high-dose 27 mg/kg): 0.30 ± 0.08^□□ mmol/L
UA (DN rats, high-dose 27 mg/kg): 26.44 ± 5.85^□□●● μmol/L
Kidney coefficient (DN rats, high-dose 27 mg/kg): 0.86 ± 0.05^□ %
lesions of the renal tissues (DN rats, kidney pathology (HE, Masson staining)): effectively reduce the lesions of the renal tissues
BUN (DN rats, low-dose 3 mg/kg): 10.56 ± 1.74 mmol/L
CREA (DN rats, low-dose 3 mg/kg): 54.16 ± 2.95 µmol/L
Glycated hemoglobin (DN rats, low-dose 3 mg/kg): 8.64 ± 0.45%
Urinary protein (DN rats, low-dose 3 mg/kg): 3.64 ± 0.65^□□ mg/6 h
mALB (microalbumin in urine) (DN rats, low-dose 3 mg/kg): 88.91 ± 10.33^□□ μg/6 h
ICAM-1 (DN rats, low-dose 3 mg/kg): 339.84 ± 92.15 pg/mgprog
IL-1β (DN rats, low-dose 3 mg/kg): 178.45 ± 31.59 pg/mgprog
IL-6 (DN rats, low-dose 3 mg/kg): 139.85 ± 55.41^□ pg/mgprog
MDA (DN rats, low-dose 3 mg/kg): 1.52 ± 0.38 nmol/mgprog
NF-κB (DN rats, low-dose 3 mg/kg): 1601.45 ± 206.73^□●● ^ pg/mgprog
SOD (DN rats, low-dose 3 mg/kg): 5.57 ± 1.75 U/mgprog
T-AOC (DN rats, low-dose 3 mg/kg): 1.39 ± 0.19 U/mgprog
TGF-β1 (DN rats, low-dose 3 mg/kg): 59.35 ± 7.34^□□ pg/mgprot
TNF-α (DN rats, low-dose 3 mg/kg): 485.60 ± 138.80 pg/mgprog
VCAM-1 (DN rats, low-dose 3 mg/kg): 37.85 ± 9.28 pg/mgprog
Glucose (GLU) (DN rats, low-dose 3 mg/kg): 13.11 ± 3.95^□□ mmol/L
HDL-C (DN rats, low-dose 3 mg/kg): 1.21 ± 0.28 mmol/L
LDL-C (DN rats, low-dose 3 mg/kg): 1.77 ± 0.57^□□ mmol/L
TC (DN rats, low-dose 3 mg/kg): 2.87 ± 0.69^□□ mmol/L
TG (DN rats, low-dose 3 mg/kg): 0.39 ± 0.05^□□ mmol/L
UA (DN rats, low-dose 3 mg/kg): 28.22 ± 7.14^□□●● μmol/L
Kidney coefficient (DN rats, low-dose 3 mg/kg): 1.06 ± 0.05%
BUN (DN rats, medium-dose 9 mg/kg): 10.07 ± 2.85 mmol/L
CREA (DN rats, medium-dose 9 mg/kg): 53.06 ± 3.75 µmol/L
Glycated hemoglobin (DN rats, medium-dose 9 mg/kg): 7.33 ± 0.77^□ %
Urinary protein (DN rats, medium-dose 9 mg/kg): 2.80 ± 1.02^□□●● mg/6 h
mALB (microalbumin in urine) (DN rats, medium-dose 9 mg/kg): 51.76 ± 9.44^□□●▴ μg/6 h
ICAM-1 (DN rats, medium-dose 9 mg/kg): 321.63 ± 82.35 pg/mgprog
IL-1β (DN rats, medium-dose 9 mg/kg): 155.22 ± 19.45 pg/mgprog
IL-6 (DN rats, medium-dose 9 mg/kg): 111.69 ± 35.86^□ pg/mgprog
MDA (DN rats, medium-dose 9 mg/kg): 1.48 ± 0.16 nmol/mgprog
NF-κB (DN rats, medium-dose 9 mg/kg): 786.93 ± 79.73^□□▴▴● pg/mgprog
SOD (DN rats, medium-dose 9 mg/kg): 5.12 ± 1.41 U/mgprog
T-AOC (DN rats, medium-dose 9 mg/kg): 1.37 ± 0.31 U/mgprog
TGF-β1 (DN rats, medium-dose 9 mg/kg): 27.91 ± 5.90^□□▴▴ pg/mgprot
TNF-α (DN rats, medium-dose 9 mg/kg): 321.27 ± 86.34^□ pg/mgprog
VCAM-1 (DN rats, medium-dose 9 mg/kg): 31.09 ± 5.42 pg/mgprog
Glucose (GLU) (DN rats, medium-dose 9 mg/kg): 11.86 ± 2.96^□□▴ mmol/L
HDL-C (DN rats, medium-dose 9 mg/kg): 1.23 ± 0.40 mmol/L
LDL-C (DN rats, medium-dose 9 mg/kg): 1.41 ± 0.33^□□ mmol/L
TC (DN rats, medium-dose 9 mg/kg): 2.33 ± 0.58^□□ mmol/L
TG (DN rats, medium-dose 9 mg/kg): 0.30 ± 0.07^□□ mmol/L
UA (DN rats, medium-dose 9 mg/kg): 27.18 ± 5.37^□□●● μmol/L
Kidney coefficient (DN rats, medium-dose 9 mg/kg): 1.00 ± 0.11%
effect on resisting the DN of rats (overall summary in words): stronger effect in resisting the DN of rats
activity in resisting the type II diabetic nephropathy, A8 compared with LM49 (rat, in vivo): higher activity in resisting the type II diabetic nephropathy than the compound LM49
